In US20140127120A1, “THERAPEUTIC AGENT FOR BONE FRACTURE COMPRISING CARBON DIOXIDE AS AN ACTIVE INGREDIENT” (NEOCHEMIR INC., priority 2011, published 2014):

Experiments:
Assay type in all cases: in vivo, rat
12-week-old SD rats = test: Bone fracture healing promoting effect in rats (simple femur fracture); conditions: carbon dioxide absorption 20 minutes, X-ray
Description: Bone fracture healing promoting effect in rats (using a carbon dioxide external administration device as a means for absorbing a therapeutic agent for bone fracture, a bone growth promoting agent, or a therapeutic or prophylactic agent for bone diseases containing carbon dioxide as an active ingredient)
According to the literature (Kokubo, T et al., J Orthop Res. 2003 May; 21(3): 503-510), a simple fracture was made in a femur of 12-week-old SD rats (n=23). The rats were matched based on their body weight and were divided into two groups (a control group: n=11; a carbon dioxide absorption group: n=12). In the same procedures as Example 1 except for adopting 20 minutes of the carbon dioxide absorption time, carbon dioxide absorption into the fractured limb was conducted. After making a fracture, X-ray images of the femur were taken for 2 rats of each group at the first week, 3 rats of each group at the second week, and 6 rats of the control group and the carbon dioxide absorption group at the third week. After the completion of the test, all rats were euthanized and the femurs were collected from the rats.

5-Week-old SD rats = test: Bone growth promoting effect in rats (transdermal carbon dioxide absorption via external administration device)
Description: (§1) Bone growth promoting effect in rats (using a carbon dioxide external administration device as a means for absorbing a therapeutic agent for bone fracture, a bone growth promoting agent, or a therapeutic or prophylactic agent for bone diseases containing carbon dioxide as an active ingredient)
5-Week-old SD rats were used as test animals. A carbon dioxide absorption aid consisting of 93.77% by weight of water, 5% by weight of glycerin, 0.65% by weight of carbomer, 0.15% by weight of sodium alginate, 0.15% by weight of sodium dihydrogen phosphate, 0.18% by weight of sodium hydroxide, 0.10% by weight of methylparaben was applied twice a week to a hair-shaved right lower limb of a rat of the carbon dioxide absorption group (n=6) in a thickness of 2 mm under anesthesia according to the patent document 7. The lower body of the rat was covered to seal with a bag having 4 cm width and 4 cm length and the top of the bag was bound tightly with a rubber band. Then, the bag was filled with 100% concentration of carbon dioxide through a vinyl tube from a carbon dioxide bomb in order to allow carbon dioxide to be absorbed for 10 minutes. The control group (n=3) was subjected to only the anesthetic procedure. The above mentioned procedures were continued for 3 months. After 3 months, the tibias of both legs were collected from all rats and the length of them was measured by X-ray. […]

5-Week-old Wister rats = test: Bone growth promoting effect in exercise-loaded rats
Experimental: as §1, with “effect in exercise-loaded rats (using” for “effect in rats (using”
5-Week-old Wister rats were matched based on their body weight and were divided into two groups (a control group: n=8; an exercise-loaded group: n=16). The running training for 30 minutes per day using an activity wheel was given to all rats for five continuous days. The exercise-loaded rats were matched based on the running distance on the fourth and fifth day as well as the body weight on the fifth day and were divided into two groups (a training group: n=8; a carbon dioxide absorption group: n=8). After shaving the lower body hair of all rats, the running training for 30 minutes per day using an activity wheel was given to the training group and the carbon dioxide absorption group. This training was done five times a week for 4 weeks. […] The tibias of both legs were collected from the rats, and then the entire length of the tibias was measured by X-ray. […] An auxotonic gristle plate of the tissue section was stained with Safranine O and its length was measured.

SMILES: O=C=O [carbon dioxide]
- fracture healing at the first and second week (12-week-old SD rats; first and second week): not healed
- rats with fracture completely healed at the third week (12-week-old SD rats; third week (control group 1/6)): 6/7
- length of the right tibia (ratio of the length between the right tibia and the left tibia) versus control group (5-Week-old SD rats; 100% carbon dioxide to right lower limb 10 minutes twice a week for 3 months, X-ray, P<0.05, FIG. 1): statistically significantly longer
- number of proliferating cells (PCNA staining of tibia auxotonic gristle area) versus control group (5-Week-old SD rats; after 3 months of carbon dioxide absorption, FIG. 2): larger
- length of the auxotonic gristle plate versus training group and control group (5-Week-old Wister rats; 4 weeks, Safranine O staining, FIG. 4): statistically significantly longer
- length of tibias versus training group (5-Week-old Wister rats; running training plus carbon dioxide absorption to both lower limbs 10 minutes, five times a week for 4 weeks, X-ray, P<0.1, FIG. 3): statistically significantly longer
